Structures can show the parent of a compound that is named as a salt.
Legend:
[1] = molecular target: Moloney murine leukemia virus reverse transcriptase (Moloney murine leukemia virus, UniProt P03355); assay: Reverse transcriptase inhibition, (3H)dTTP incorporation; type: biochemical; conditions: for inhibition at 0.5 µg/mL: concentration 0.5 μg/ml; for inhibition at 1 µg/mL: concentration 1.0 μg/ml; for reverse transcriptase inhibiting effect compared with Nevirapin and AZT, in words: dose dependent, lower than AZT
Procedure: The compounds may be sorted into group of the non-nucleoside type reverse transcriptase inhibitors. Tests were performed on Moloney murine leukemia virus reverse transcriptase that is considered as a good model of the HIV reverse transcriptase enzyme. The experimental assembly was the following.
The assay measures the incorporation of (3H)dTTP into cDNA using poly(dA) template and oligo(dT)12-18 primer. The reaction was carried out in 20 μl volume.
The reaction was started by addition of 5U reverse transcriptase
The reaction mixture was incubated for 40 min at 37° C. Then 15 μl of the reaction mixture was loaded on Whatman DE81 filter discs and filters were washed sequentially with 5% disodium hidrogen phosphate buffer, with water and with 96% (v/v) ethanol. After drying, the filters were placed into scintillation cocktail (OptiPhase, HiSafe, Wallac) and the radioactivity was measured in a Packard Tri-Carb 2200 scintillation counter.
Two compounds with known inhibitory activity were used in the experiments as positive control. AZT is a nucleoside analog while the compound Nevirapin is a non-nucleoside type inhibitor. Nevirapine binds to the so called benzodiazepine binding site of the enzyme. The applied concentrations of the test compounds were in the 0.2-2 μg/ml concentration range.

[2] = tested on: male SPRD rats; assay: Reperfusion induced arrhythmia after LAD occlusion, survival rate; type: in vivo, rat; conditions: for responders at 5 mg/kg / responders at 1 mg/kg: Rattus norvegicus, iv, read-out: % SURV; for responders at 5 mg/kg: control 15.38; for effect on survival of reperfusion arrhythmia, in words: compared with Example 2 (100% survival)
Procedure: Experiments were carried out in male SPRD rats (acceptable body weight range: 300-350 g). The animals were anesthetized with sodium pentobarbital (Nembutal®: 60 mg/kg intraperitoneally) and remained breathing spontaneously. The animals were ventilated with respirator (MTA Kutesz) by using trachea cannule which was inserted after tracheotomy. The standard lead of the ECG II is monitored. Right femoral artery was catheterized and connected to a pressure transducer (BPR-01, Experimetria, Hungary), a preamplifier and pulsotachometer (HG-M, Experimetria, Hungary) for arterial blood pressure and heart rate measurement, respectively. The external jugular vein was cannulated for drug administration. After thoracotomy a silk (braided, coated 4-0) was placed under the left anterior coronary (LAD) artery. After a few minutes' stabilization period, a 5 min occlusion of LAD artery was applied, followed by a 10 min reperfusion period. The survival rate was evaluated.

[3] = molecular target: T1, poly-ADP-ribose polymerase from rat liver (Rattus norvegicus, UniProt P27008); assay: In vitro PARP inhibition on isolated enzyme; type: biochemical; conditions: isolated rat liver enzyme; ± SEM from four parallel measurements; read-out: PARP I0.5 mg/l (converted)
T1 construct: We have isolated the poly-ADP-ribose polymerase from rat liver; from tissue; host or cells: rat liver
T1 sequence (P27008 whole entry): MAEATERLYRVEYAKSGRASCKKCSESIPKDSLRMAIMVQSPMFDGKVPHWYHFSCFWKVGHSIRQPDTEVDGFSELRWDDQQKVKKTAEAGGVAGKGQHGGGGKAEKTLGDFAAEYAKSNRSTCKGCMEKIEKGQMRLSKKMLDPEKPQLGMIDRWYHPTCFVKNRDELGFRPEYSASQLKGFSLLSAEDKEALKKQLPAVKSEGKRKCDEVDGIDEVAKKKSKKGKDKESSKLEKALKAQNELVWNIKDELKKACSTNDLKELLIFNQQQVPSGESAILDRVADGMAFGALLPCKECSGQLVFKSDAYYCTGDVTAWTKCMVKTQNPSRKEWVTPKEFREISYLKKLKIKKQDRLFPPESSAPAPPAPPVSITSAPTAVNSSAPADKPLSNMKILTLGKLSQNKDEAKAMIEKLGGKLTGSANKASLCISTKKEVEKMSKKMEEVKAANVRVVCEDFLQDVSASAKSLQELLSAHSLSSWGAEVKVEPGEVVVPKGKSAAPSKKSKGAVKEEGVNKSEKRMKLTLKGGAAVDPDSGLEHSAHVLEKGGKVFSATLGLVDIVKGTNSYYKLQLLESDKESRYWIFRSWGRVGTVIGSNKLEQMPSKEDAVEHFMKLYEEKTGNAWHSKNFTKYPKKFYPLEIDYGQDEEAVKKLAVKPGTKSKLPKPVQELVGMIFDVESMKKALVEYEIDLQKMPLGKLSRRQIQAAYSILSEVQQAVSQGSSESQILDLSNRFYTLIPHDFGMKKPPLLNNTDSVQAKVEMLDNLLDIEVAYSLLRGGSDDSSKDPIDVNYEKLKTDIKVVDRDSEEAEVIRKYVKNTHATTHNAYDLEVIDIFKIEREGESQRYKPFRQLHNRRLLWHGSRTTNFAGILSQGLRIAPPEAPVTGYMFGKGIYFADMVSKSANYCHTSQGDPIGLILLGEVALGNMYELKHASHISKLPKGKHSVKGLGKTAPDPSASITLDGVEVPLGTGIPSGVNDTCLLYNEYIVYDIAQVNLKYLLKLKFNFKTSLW
Procedure: We have isolated the poly-ADP-ribose polymerase from rat liver according to the article Shah.G. M.,Anal Biochem, 227, 1-13 (1995).
We have determined the PARP activation in 130 μl of reaction mixture, which consists of: 100 mM Tris-HCl puffer, pH 8.0, 10 mM MgCl2, 10% glycerol, 1.5 mM DTT, 100 μg of (32P), or (3H), NAD+, 10 μg of histone. We have stopped the reaction after 10 minutes with 8% perchloric acid and seperated the protein through centrifugation (10 minutes, 10.000×g). We have washed the precipitate with 8% perchloric acid, and we measured the radioactivity connected to the protein with scintillation counter.

[4] = tested on: carnitine-palmitoyl transferase (CPTI); assay: Determination of CPTI inhibition; type: biochemical; conditions: None = 100; sub-millimolar concentration range
[5] = tested on: mouse HSP-70 gene promoter in mouse fibroblast L929 cells; assay: HSP-70 promoter-luciferase reporter gene assay; type: cell-based; conditions: Control = 100; 10 μl of 10^-2 M solution to 1 ml culture, 30 min, 1 hour regeneration
From the text: The activity of HSP-70 was studied by reporter gene assay forming a DNA hybrid. To the promoter sequence of HSP-70 encoding the heat shock protein was fused a gene of a protein that can be detected by a well-measurable enzyme activity. Biotechnological processes were used. As reporter gene luciferase enzyme was employed, the activity of which can be well determined by luminescence measurement. If the promoter of the gene of the luciferase enzyme is substituted by the promoter of the HSP-70 gene, then the change in the activity of the luciferase enzyme i.e. the change of the frequency of the transcription from the gene correlates with the frequency of the transcription of the HSP-70 gene that proceeds in the given circumstances. In this way, if a substance or process influences the expression of the HJSP-70 gene, the effect can be studied through the measurement of the luciferase enzyme activity. The effect of the substances to be tested on the HSP-70 expression was studied in such an experimental system.
A double-stranded DNA circular molecule i.e. a plasmid containing the HSP-70 reporter gene was constructed to perform the measurements. An almost 600 bp long sequence of the mouse HSP-70 gene promoter (5′ direction from the start site of the gene) was fused to the coding sequence of the luciferase gene originated from Photymus pyralis. The applied promoter sequence contained several protein binding sites facilitating the expression of the HSP-70 gene. The HSP promoter-luciferase heterologous gene construct was built in a pBR based plasmid vector that can be selected for neomycin. This HSP-70-luciferase plasmid was transfected into mouse fibroblast L929 cells. The assay was performed as follows.
The HSP-70-luc plasmid containing L929 cells are grown in DMEM (Dulbecco's Modified Eagle's Medium) medium supplemented with 5% FCS (Fetal Calf Serum). 10^4 cells are plated in the wells of a 24-well Costar cell culture plate in 1 ml of culture medium. Test substances are dissolved in PBS (Phosphate Buffered Saline) in 10^−2 M concentration. After attachment of the cells (3-4 hours after plating) 10 μl of the solution are given to the cultures and cells are incubated for 30 min. at 37° C. in a CO2 thermostat. Culture medium is then changed for fresh one (without test substance) and cells are allowed to regenerate for 1 hour at 37° C., then once washed with PBS. After removal of PBS 40 μl of 1× lysis buffer are added to the cells, and the samples are kept on ice for 30 minutes. Then the samples are transferred into Eppendorf vials and centrifuged at 14000 rpm for 20 min at 4° C. 5 μl of the supernatant is added to 25 μl of luciferase assay buffer and the luminescence of the samples is measured for 25 seconds in a luminometer.

[6] = tested on: HepG2 cells; assay: LDH enzyme activity in hypoxia exposed HepG2 cells; type: cell-based; conditions: Homo sapiens, 30 μg/ml, hypoxia 1% O2 24 hours, Hypoxic control = 100, read-out: Relative LDH content, %
Procedure: HepG2 cell were cultured in DMEM medium supplemented with 10% FCS in 5% CO2 containing air at 37° C. 10^5 cells were plated in the wells of Costar 24-well culture plates in 1 ml medium. On the following day, cells were treated with the test compounds in a concentration of 30 μg/ml, then cells were exposed to hypoxia treatment (1% O2, 5% CO2 in nitrogen gas) for 24 hours. A part of the control cultures were treated with water used as the solvent, and another part of them was not exposed to hypoxia. At the end of the hypoxic treatment, medium was removed and cells were washed twice with cold PBS. Cells lysates were prepared in 0.05% Triton X-100 containing phosphate buffer (0.05 M) and after centrifugation (2 min. […]) the LDH activity of the supernatant was determined on the basis of NADH consumption in the presence of sodium piruvate substrate.
The LDH activity of the cells treated with the test compounds and compared to the activity of the control exposed to hypoxia is shown in Table 6.

[7] = tested on: CD-1 female mice; assay: Prevention of streptozotocin (SZ)-induced type I diabetes mellitus on mice, blood glucose; type: in vivo, mouse
Procedure: The experiments were carried out on CD-1 female mice weighing 17-19 g (Charles River, Hungary). The animals were divided into three groups. Each group consisted of 10 animals. The first group received 160 mg/kg of streptozotocin, i.p. (Sigma), the second group received 160 mg/kg of streptozotocin, and 200 mg/kg of the compound of Example 2 p.o., the third group served as the control. The blood glucose concentration was measured on the third day. The animals were killed, serum samples were taken for insulin determination, and pancreases were removed for histological studies. The blood glucose concentrations can be seen in Table 3.

Row | SMILES | inhibition at 0.5 µg/mL ([1]; read-out: Enzyme inhibition, %) [%] | inhibition at 1 µg/mL ([1]; read-out: Enzyme inhibition, %) [%] | inhibition at 2 µg/mL ([1]; concentration 2 μg/ml, read-out: Enzyme inhibition, %) [%] | reverse transcriptase inhibiting effect compared with Nevirapin and AZT, in words [1] | responders at 5 mg/kg [2] [%] | IC50 [3] [µM] | CPTI test in % [4] [%] | Activity (HSP-70 promoter luciferase) [5] | responders at 1 mg/kg [2] [%] | effect on survival of reperfusion arrhythmia, in words [2] | activity at 30 µg/mL [6] [%] | inhibition at 0.2 µg/mL ([1]; concentration 0.2 μg/ml, read-out: Enzyme inhibition, %) [%] | GLUCOSE (mean ± s.d.) ([7]; 160 mg/kg streptozotocin i.p. + 200 mg/kg compound p.o., blood, third day, control 4.78 ± 2.13) | blood glucose concentration enhanced by streptozotocin, in words ([7]; 200 mg/kg p.o.)
1 | NC(C=Cc1cccnc1)=NOCCCN1CCCCC1 [Example 3, O-(3-Piperidino-propyl)-3-(3-Pyridyl)acrylic Acid Amidoxime Hydrochloride] | 7 | 45 | 70 | higher than that of Nevirapin | 40 | 8.32 | 68.8 ± 3.2 | 207 |  |  |  |  |  | 
2 | NC(C=Cc1ccccc1)=NOCC(O)CN1CCCCC1 (stereo not drawn) [Example 4, O-(3-Piperidino-2-hydroxy-propyl)-cinnamic Acid Amidoxime Dihydrochloride] |  |  |  | higher than that of Nevirapin | 81.8 | 27 |  | 250 | 16.7 | similarly outstanding effect | 118 |  |  | 
3 | NC(C=Cc1ccccc1)=NOCCCN1CCCCC1 [Example 1, O-(3-Piperidino-propyl)-cinnamic Acid Amidoxime Dihydrochloride] | 29 | 44 |  |  | 46 | 13.9 | 60.1 ± 2.1 | 107 | 70 | similarly outstanding effect |  | 6 |  | 
4 | COc1ccc(C=CC(N)=NOCCCN2CCCCC2)cc1OC [Example 2, O-(3-Piperidino-propyl)-3,4-Dimethoxycinnamic Acid Amidoxime Hydrochloride] |  |  |  |  | 100 | 15 |  |  | 41.7 |  | 118 |  | 8.16 ± 0.65 | remarkably reduces the blood glucose concentration

— patent US6500823B1, “Unsaturated hydroximic acid derivatives as per abstract inhibitors” (N-Gene Research Laboratories, Inc., priority 1998, dated 2002)
